Data set [1] relates to PC-12. The experiment in a line: Cytotoxicity against rat PC12 cells assessed as decrease in cell viability at 30 uM after 24 hrs by MTT assay. It counts as cell-based. To be noted: pc-12, 24 h. For orientation: Formazan colour is commonly taken as a measure of viable cells.
Data set [2] deals with T1, Amine oxidase [flavin-containing] A (Homo sapiens, UniProt P21397).
T1 sequence (P21397 whole entry): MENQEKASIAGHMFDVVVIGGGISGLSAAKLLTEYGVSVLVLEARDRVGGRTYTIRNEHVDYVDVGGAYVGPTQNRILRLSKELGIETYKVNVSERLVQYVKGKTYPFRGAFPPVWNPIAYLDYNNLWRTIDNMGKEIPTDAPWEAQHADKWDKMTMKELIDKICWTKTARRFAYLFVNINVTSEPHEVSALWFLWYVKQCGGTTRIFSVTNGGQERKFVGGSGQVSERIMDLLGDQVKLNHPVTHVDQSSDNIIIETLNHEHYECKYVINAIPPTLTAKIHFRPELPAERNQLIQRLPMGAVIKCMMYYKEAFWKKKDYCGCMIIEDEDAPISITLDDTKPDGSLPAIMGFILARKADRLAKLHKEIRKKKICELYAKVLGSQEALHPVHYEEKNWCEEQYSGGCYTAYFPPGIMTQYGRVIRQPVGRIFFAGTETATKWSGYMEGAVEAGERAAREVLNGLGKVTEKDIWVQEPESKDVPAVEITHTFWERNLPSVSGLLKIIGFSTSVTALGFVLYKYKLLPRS
The experiment in a line: Inhibition of human MAO-A using p-tyramine as substrate incubated for 15 mins followed by substrate addition measured for 20 mins by fluorescence assay.

Data set [3] is described as follows: Antioxidant activity assessed as ABTS radical cation scavenging activity by measuring trolox equivalent antioxidant capacity measured at 6 mins. It counts as functional.
The subject of data set [4] is PC-12. The experiment in a line: Neuroprotective activity against H2O2-induced apoptosis in rat PC12 cells assessed as early apoptotic cells at 10 uM after 24 hrs by Annexin V-FITC/propidium iodide staining-based flow cytometry (reference value: 1.4%). It counts as functional. In general terms: In flow cytometry, cells or beads pass a laser one at a time.
The subject of data set [5] is PC-12. The experiment in a line: Cytotoxicity against rat PC12 cells assessed as decrease in cell viability at 20 uM after 24 hrs by MTT assay. It counts as cell-based. The following applies: pc-12, 24 h.
In data set [6] the target is Cholinesterase (Equus caballus) (UniProt P81908). Put plainly: Inhibition of equine serum BuChE at 100 uM using butyrylthiocholine iodide as substrate incubated for 5 mins followed by substrate addition measured after 180 secs by Ellman's method relative to control. In general terms: Ellman's reagent forms a yellow product with free thiols.
Cholinesterase (Equus caballus), sequence (P81908 whole entry): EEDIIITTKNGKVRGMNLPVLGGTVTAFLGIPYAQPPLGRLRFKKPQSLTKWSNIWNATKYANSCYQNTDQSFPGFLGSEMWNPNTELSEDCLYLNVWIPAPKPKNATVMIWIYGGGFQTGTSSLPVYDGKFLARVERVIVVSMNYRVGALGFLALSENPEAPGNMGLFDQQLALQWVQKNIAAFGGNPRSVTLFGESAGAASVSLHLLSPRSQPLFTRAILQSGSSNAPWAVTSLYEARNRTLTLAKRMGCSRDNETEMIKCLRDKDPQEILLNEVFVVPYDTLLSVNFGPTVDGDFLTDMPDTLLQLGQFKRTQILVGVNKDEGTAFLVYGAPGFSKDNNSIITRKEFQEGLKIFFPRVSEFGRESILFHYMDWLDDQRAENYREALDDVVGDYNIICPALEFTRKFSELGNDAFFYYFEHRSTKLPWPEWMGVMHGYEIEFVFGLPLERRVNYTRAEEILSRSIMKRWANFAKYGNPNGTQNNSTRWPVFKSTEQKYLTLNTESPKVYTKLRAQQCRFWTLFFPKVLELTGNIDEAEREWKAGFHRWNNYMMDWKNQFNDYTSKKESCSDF
Data set [7] in a line: Antioxidant activity assessed as trolox equivalent of AAPH-induced radical scavenging activity preincubated for 15 mins followed by AAPH addition measured every minute for 120 mins by ORAC-FL based fluorescein assay. It counts as functional.
Data set [8] has as its system BV-2. The experiment in a line: Inhibition of LPS-induced intracellular ROS production in mouse BV2 cells assessed as mean fluorescence intensity at 5 uM incubated with LPS for 18 hrs followed by compound addition measured after 36 hrs by DCFH-DA probe based flow cytometry (reference value: 493530). It counts as functional.
Data set [9] has as its system Mus musculus. The experiment in a line: Acute toxicity in mouse assessed as abnormal changes in brain at 2000 mg/kg, po measured continuously for first 4 hrs and intermittently for next 24 hrs and occasionally for 14 days by hematoxylin and eosin staining based microscopic method. It counts as organism-based. To be noted: in vivo.
In data set [10] the test system is PC-12. The experiment in a line: Neuroprotective activity against H2O2-induced apoptosis in rat PC12 cells assessed as viable cells at 2.5 uM after 24 hrs by Annexin V-FITC/propidium iodide staining-based flow cytometry (reference value: 68.4%). To be noted: PC-12, 24 h, read-out: Activity. It counts as functional.
Data set [11] deals with BV-2. Put plainly: Inhibition of LPS-induced intracellular ROS production in mouse BV2 cells assessed as mean fluorescence intensity incubated with LPS for 18 hrs followed by compound addition measured after 36 hrs by DCFH-DA probe based flow cytometry. It counts as functional, cell-based.
Data set [12] deals with Mus musculus. Put plainly: Toxicity in ICR mouse assessed as mouse survival at 5 to 10 mg/kg, po administered for 10 consecutive days. It counts as organism-based. To be noted: in vivo.
The subject of data set [13] is PC-12. The experiment in a line: Reversal of H2O2-induced calcium overload in rat PC12 cells after 48 hrs by Fluo-3/AM probe based flow cytometry. It counts as functional, cell-based.
Data set [14] concerns PC-12. The experiment in a line: Neuroprotective activity against H2O2-induced apoptosis in rat PC12 cells assessed as necrotic cells at 10 uM after 24 hrs by Annexin V-FITC/propidium iodide staining-based flow cytometry (reference value: 4.9%). It counts as functional.
Data set [15] deals with Mus musculus. The experiment in a line: Reversal of scopolamine-induced memory impairment in ICR mouse assessed as increase in step-through latency time administered orally for 10 consecutive days and 60 mins prior to training trial followed by scopolamine challenge at 30 mins post dose measured 24 hrs after training trial by passive avoidance test. It counts as functional, organism-based.

Data set [16] deals with PC-12. The experiment in a line: Neuroprotective activity against H2O2-induced apoptosis in rat PC12 cells assessed as late apoptotic cells at 5 uM after 24 hrs by Annexin V-FITC/propidium iodide staining-based flow cytometry (reference value: 25.3%). It counts as functional.
The target of data set [17] is Acetylcholinesterase (Electrophorus electricus, UniProt O42275). Put plainly: Inhibition of electric eel AChE using acetylthiocholine chloride as substrate incubated for 5 mins followed by substrate addition measured after 180 secs by Ellman's method.
Acetylcholinesterase, sequence (O42275 whole entry): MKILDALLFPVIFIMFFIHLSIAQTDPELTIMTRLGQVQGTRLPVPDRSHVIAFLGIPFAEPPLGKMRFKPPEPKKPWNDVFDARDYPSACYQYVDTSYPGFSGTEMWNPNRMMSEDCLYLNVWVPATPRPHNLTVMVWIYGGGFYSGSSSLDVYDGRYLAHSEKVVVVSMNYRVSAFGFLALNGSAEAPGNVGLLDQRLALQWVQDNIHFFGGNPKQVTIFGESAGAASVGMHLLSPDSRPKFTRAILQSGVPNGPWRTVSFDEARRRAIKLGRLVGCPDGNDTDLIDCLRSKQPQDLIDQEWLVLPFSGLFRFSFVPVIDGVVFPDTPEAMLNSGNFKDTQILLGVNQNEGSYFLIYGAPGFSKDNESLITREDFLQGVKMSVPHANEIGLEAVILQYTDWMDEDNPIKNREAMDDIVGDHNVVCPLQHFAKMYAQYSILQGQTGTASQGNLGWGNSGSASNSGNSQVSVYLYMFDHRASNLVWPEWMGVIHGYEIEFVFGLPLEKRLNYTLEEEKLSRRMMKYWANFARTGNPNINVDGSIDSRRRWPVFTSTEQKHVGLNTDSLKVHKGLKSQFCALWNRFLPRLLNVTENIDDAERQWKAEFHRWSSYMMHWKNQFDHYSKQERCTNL
Data set [18] in a line: Antioxidant activity assessed as DPPH radical scavenging activity measured after 30 mins incubation in dark by UV-Visible spectrophotometric analysis. It counts as functional.
The test system of data set [19] is PC-12. Put plainly: Reversal of H2O2-induced calcium overload in rat PC12 cells assessed as mean fluorescence intensity at 10 uM after 48 hrs by Fluo-3/AM probe based flow cytometry (reference value: 454014). It counts as functional.
For data set [20], the system named is PC-12. Put plainly: Neuroprotective activity against H2O2-induced apoptosis in rat PC12 cells assessed as viable cells at 10 uM after 24 hrs by Annexin V-FITC/propidium iodide staining-based flow cytometry (reference value: 68.4%). To be noted: PC-12, 24 h, read-out: Activity. It counts as functional.
The test system of data set [21] is PC-12. Put plainly: Neuroprotective activity against H2O2-induced apoptosis in rat PC12 cells assessed as late apoptotic cells at 2.5 uM after 24 hrs by Annexin V-FITC/propidium iodide staining-based flow cytometry (reference value: 25.3%). It counts as functional.
Data set [22] concerns PC-12. Put plainly: Neuroprotective activity against H2O2-induced oxidative stress in rat PC12 cells assessed as increase in cell viability pretreated for 4 hrs followed by H2O2 challenge measured after 24 hrs by MTT assay. It counts as functional, cell-based.
The subject of data set [23] is PC-12. The experiment in a line: Neuroprotective activity against H2O2-induced apoptosis in rat PC12 cells assessed as necrotic cells at 2.5 uM after 24 hrs by Annexin V-FITC/propidium iodide staining-based flow cytometry (reference value: 4.9%). It counts as functional.

Broadly, the IC50 is the point on the concentration scale where inhibition reaches its midpoint. One may read the inhibition as the drop in the measured response relative to a control, in per cent. For `CC(C)(C)c1cc(/C=C/C(=O)NCCC2CCN(Cc3ccccc3F)CC2)cc(C(C)(C)C)c1O`, the Activity result was “Toxic” in data set [1]; 0.3% in data set [4]; “Non-Toxic” in data set [5]; “Non-Toxic” in data set [9]; “Non-Toxic” in [12]; “Dose-dependent effect” in data set [13]. The Activity in data set [14] is 1.6%; in data set [15], “Dose-dependent effect”; in data set [16], 9%; in data set [21] it was 14.8%; in data set [22] it was “Dose-dependent effect”; in [23] it was 3.5%. Besides, the IC50 in data set [2] worked out at 60.2 µM; in [17] it was 0.075 µM; in data set [18], 55.9 µM. Moreover, the Activity (mmolequiv/mmol) in data set [3] worked out at 0.82; in data set [7], 1.64. The inhibition in [6] was 48%; in data set [11] it was “Dose-dependent effect”. Further, the results for the Flu intensity in data set [8] and in data set [19] were 479700 and 157903, respectively. Also, the viability at 2.5 µM in data set [10] turned out to be 81.5%. For the same molecule, in data set [20], the viability at 10 µM is 92.4%.
